Biological target: T1, Kir2.1 (Rattus norvegicus, UniProt Q64273)
T1 construct: Kir2.1 (KCNJ2, NM_017296); expressed in transfected cells; host or cells: Xenopus laevis oocytes injected with cRNA
T1 sequence (Q64273 1-427): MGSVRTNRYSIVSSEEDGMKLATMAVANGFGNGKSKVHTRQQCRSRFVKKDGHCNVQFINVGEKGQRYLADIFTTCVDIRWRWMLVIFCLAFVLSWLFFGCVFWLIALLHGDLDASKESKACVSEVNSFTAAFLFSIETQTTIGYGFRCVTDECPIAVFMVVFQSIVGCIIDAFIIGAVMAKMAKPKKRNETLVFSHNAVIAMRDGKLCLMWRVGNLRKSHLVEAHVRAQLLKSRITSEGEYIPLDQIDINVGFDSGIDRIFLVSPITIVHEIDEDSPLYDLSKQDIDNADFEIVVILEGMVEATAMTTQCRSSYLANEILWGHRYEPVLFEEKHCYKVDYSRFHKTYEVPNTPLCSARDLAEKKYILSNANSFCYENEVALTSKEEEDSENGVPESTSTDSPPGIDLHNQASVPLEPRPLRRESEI
Test: TEVC selectivity in X. laevis oocytes, Kir2.1
Format: cell-based
Settings: mean ± SD, n = 3, read-out: Effect on Kir2.1 (inhibition)
Experimental: After confirming compound 6f simultaneous blockade of TASK-1, KV1.5, and NaV1.5, other cardiac channels (Kir2.1, TREK-1, TASK-4) were tested for selectivity at 100 μM (Fig. 8).
To obtain X. laevis oocytes, the frogs were anesthetized with 2 g/L of tricaine methanesulfonate, and the ovarian lobes were mechanically separated with forceps. The oocytes were incubated for 120 min in an OR2 solution containing in mM: NaCl 82.5, KCl 2, MgCl2 1, HEPES 5 (pH 7.5) supplemented with 2 mg/ml of collagenase II (Sigma) to remove residual connective tissue and obtain individual oocytes. […]
In order to overexpress the channel in the oocyte, each of the channels to be measured was subcloned (complementary DNA (cDNA); human TASK-1 (KCNK3, NM_002246), h KV1.5 (KCNA5, NM_002234), h NaV1.5 (hH1, M77235), TASK-4/TALK-2 (KCNK17, NM_AF358910), TREK-1 (KCNK2, AF004711) and Kir2.1 (KCNJ2, NM_017296) into pSGEM, pBF1 or pSP64 expression vector, and the cDNA was linearized with NheI or MluI. Complementary RNA (cRNA) was synthesized with the mMESSAGE mMACHINE-Kit (Ambion). The quality of the cRNA was tested on an agarose gel by electrophoresis. cRNA was quantified using a UV-Vis spectrophotometer (NanoDrop 2000). […] After this time, the overexpression of each channel was monitored through electrophysiology. […]

- inhibition at 100 µM: -1.01%
Structure (SMILES): CCCCN(CCCC)CC(=O)Nc1ccc(OC)cc1OC [Compound 6f, 2-(dibutylamine)-N-(2,4-dimethoxiphenyl)acetamide]
